# Laboratory results as given in US20210323977A1, “PYRROLIDINYL AMIDE COMPOUNDS FOR THE TREATMENT OF AUTOIMMUNE DISEASE” (Hoffmann-La Roche Inc., priority 2018, published 2021).
# Molecular target: T1, human TLR8 (Homo sapiens, UniProt Q9NR97)
# T1 sequence (Q9NR97 27-1041): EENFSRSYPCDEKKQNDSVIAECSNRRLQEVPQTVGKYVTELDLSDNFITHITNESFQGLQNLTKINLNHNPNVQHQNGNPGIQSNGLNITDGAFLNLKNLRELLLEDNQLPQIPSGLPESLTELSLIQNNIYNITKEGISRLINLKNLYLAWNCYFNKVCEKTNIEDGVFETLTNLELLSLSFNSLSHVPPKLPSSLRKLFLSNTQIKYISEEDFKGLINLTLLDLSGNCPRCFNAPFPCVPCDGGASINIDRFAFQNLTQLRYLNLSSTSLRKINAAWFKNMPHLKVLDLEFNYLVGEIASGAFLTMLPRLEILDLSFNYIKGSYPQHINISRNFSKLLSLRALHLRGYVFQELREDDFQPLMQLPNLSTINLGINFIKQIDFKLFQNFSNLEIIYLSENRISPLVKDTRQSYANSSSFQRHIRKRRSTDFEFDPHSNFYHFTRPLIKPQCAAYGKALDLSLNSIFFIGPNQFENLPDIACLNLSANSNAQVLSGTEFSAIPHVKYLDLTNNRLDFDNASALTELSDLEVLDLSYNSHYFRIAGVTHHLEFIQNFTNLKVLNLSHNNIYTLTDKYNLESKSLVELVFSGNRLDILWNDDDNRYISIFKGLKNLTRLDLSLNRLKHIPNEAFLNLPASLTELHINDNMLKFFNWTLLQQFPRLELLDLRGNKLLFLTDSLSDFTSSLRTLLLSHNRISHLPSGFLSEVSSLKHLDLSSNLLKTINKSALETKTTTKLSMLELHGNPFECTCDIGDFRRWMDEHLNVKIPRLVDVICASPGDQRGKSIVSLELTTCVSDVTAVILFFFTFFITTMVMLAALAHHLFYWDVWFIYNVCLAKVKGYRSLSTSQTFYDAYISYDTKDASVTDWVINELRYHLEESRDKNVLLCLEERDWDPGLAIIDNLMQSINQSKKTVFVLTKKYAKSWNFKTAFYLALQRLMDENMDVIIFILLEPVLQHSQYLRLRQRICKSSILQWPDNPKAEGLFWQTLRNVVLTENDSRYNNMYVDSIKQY
# Experiment: HEK293-Blue-hTLR-8 cells assay
# Type: cell-based
# Conditions: HEK293-Blue-hTLR8 cells, SEAP reporter, R848 stimulation, 20 hrs
# Excerpt: HEK293-Blue-hTLR-8 Cells Assay:
# A stable HEK293-Blue-hTLR-8 cell line was purchased from InvivoGen (Cat. #: hkb-htlr8, San Diego, Calif., USA). These cells were originally designed for studying the stimulation of human TLR8 by monitoring the activation of NF-κB. A SEAP (secreted embryonic alkaline phosphatase) reporter gene was placed under the control of the IFN-β minimal promoter fused to five NF-κB and AP-1-binding sites. The SEAP was induced by activating NF-κB and AP-1 via stimulating HEK-Blue hTLR8 cells with TLR8 ligands. Therefore the reporter expression was declined by TLR8 antagonist under the stimulation of a ligand, such as R848, for incubation of 20 hrs. The cell culture supernatant SEAP reporter activity was determined using QUANTI-Blue™ kit (Cat. #: rep-qb1, Invivogen, San Diego, Ca, USA) at a wavelength of 640 nm, a detection medium that turns purple or blue in the presence of alkaline phosphatase.
# HEK293-Blue-hTLR8 cells were incubated at a density of 250,000-450,000 cells/mL in a volume of 170 μL in a 96-well plate in Dulbecco's Modified Eagle's medium (DMEM) containing 4.5 g/L glucose, 50 U/mL penicillin, […], […], 2 mM L-glutamine, 10% (v/v) heat-inactivated fetal bovine serum with addition of 20 μL test compound in a serial dilution in the presence of final DMSO at 1% and 10 sL of 60 uM R848 in above DMEM, perform incubation under 37° C. in a CO2 incubator for 20 hrs. Then 20 μL of the supernatant from each well was incubated with 180 sL Quanti-blue substrate solution at 37° C. for 2 hrs and the absorbance was read at 620˜655 nm using a spectrophotometer. The signalling pathway that TLR8 activation leads to downstream NF-κB activation has been widely accepted, and therefore similar reporter assay was modified for evaluating TLR8 antagonist.
row,Structure (SMILES),IC50 [nM]
1,"CN1CCC(NC(=O)[C@@H]2CN(c3ccc(C#N)c4ncccc34)C[C@H]2C2CC2)CC1 (relative stereo) [Example 14, Trans-1-(8-cyano-5-quinolyl)-4-cyclopropyl-N-(1-methyl-4-piperidyl)pyrrolidine-3-carboxamide]",193
2,"CN1CCC(NC(=O)[C@@H]2CN(c3ccc(C#N)c4ncccc34)C[C@H]2C(F)(F)F)CC1 (relative stereo) [Example 17, Trans-1-(8-cyano-5-quinolyl)-N-(1-methyl-4-piperidyl)-4-(trifluoromethyl)pyrrolidine-3-carboxamide]",66
3,C[C@@H]1CN(c2ccc(C#N)c3ncccc23)C[C@H]1C(=O)NC1CCN(C)CC1 (relative stereo) [Example 28],52
4,"CC[C@@H]1CN(c2ccc(C#N)c3ncccc23)C[C@H]1C(=O)NC1CCN(C)CC1 (relative stereo) [Example 29, Trans-1-(8-cyano-5-quinolyl)-4-ethyl-N-(1-methyl-4-piperidyl)pyrrolidine-3-carboxamide]",96
5,"C[C@@H]1CN(c2ccc(C#N)c3ncccc23)C[C@H]1C(=O)N1CCC2(CCNCC2)CC1 (relative stereo) [Example 32, Trans-5-[3-(3,9-diazaspiro[5.5]undecane-3-carbonyl)-4-methyl-pyrrolidin-1-yl]quinoline-8-carbonitrile]",213
6,"CC(C)[C@@H]1CN(c2ccc(C#N)c3ncccc23)C[C@H]1C(=O)NC1CCN(C)CC1 (relative stereo) [Example 37, Trans-1-(8-cyano-5-quinolyl)-4-isopropyl-N-(1-methyl-4-piperidyl)pyrrolidine-3-carboxamide]",489
7,"CN1CCC(NC(=O)[C@@H]2CN(c3ccc(C#N)c4ncccc34)C[C@H]2C(F)F)CC1 (relative stereo) [Example 40, Trans-1-(8-cyano-5-quinolyl)-4-(difluoromethyl)-N-(1-methyl-4-piperidyl)pyrrolidine-3-carboxamide]",134
8,"N[C@@H]1CCC[C@H](NC(=O)C2CN(c3ccc(C(F)(F)F)c4nccnc34)CC23CC3)C1 (relative stereo) [Example 43, Cis-N-(3-aminocyclohexyl)-5-[8-(trifluoromethyl)quinoxalin-5-yl]-5-azaspiro[2.4]heptane-7-carboxamide]",124
9,"CN1CCC(NC(=O)[C@@H]2CN(c3ccc(Cl)c4ncccc34)C[C@H]2C(F)(F)F)CC1 (relative stereo) [Example 46, Trans-1-(8-chloro-5-quinolyl)-N-(1-methyl-4-piperidyl)-4-(trifluoromethyl)pyrrolidine-3-carboxamide]",51
10,"C[C@@H]1CN(c2ccc(C#N)c3ncccc23)C[C@H]1C(=O)N1CCC2(CCNC2)C1 (relative stereo) [Example 53, Trans-5-[3-(2,7-diazaspiro[4.4]nonane-2-carbonyl)-4-methyl-pyrrolidin-1-yl]quinoline-8-carbonitrile]",225
11,"CN1CCC(NC(=O)C2CN(c3ccc(C#N)c4nccnc34)CC23CC3)CC1 (single isomer, unassigned) [Example 7A, 5-(8-Cyanoquinoxalin-5-yl)-N-(1-methyl-4-piperidyl)-5-azaspiro[2.4]heptane-7-carboxamide]",7
12,"CN1CCC(NC(=O)C2CN(c3ccc(C#N)c4nccnc34)CC23CC3)CC1 (single isomer, unassigned) [Example 7B, 5-(8-Cyanoquinoxalin-5-yl)-N-(1-methyl-4-piperidyl)-5-azaspiro[2.4]heptane-7-carboxamide]",26
13,"N#Cc1ccc(N2CC(C(=O)NC3CCCNCC3)C(C(F)(F)F)C2)c2cccnc12 (single isomer, unassigned) [Example 30A, N-(azepan-4-yl)-1-(8-cyano-5-quinolyl)-4-(trifluoromethyl)pyrrolidine-3-carboxamide]",67
14,"N#Cc1ccc(N2CC(C(=O)NC3CCCNCC3)C(C(F)(F)F)C2)c2cccnc12 (single isomer, unassigned) [Example 30B, N-(azepan-4-yl)-1-(8-cyano-5-quinolyl)-4-(trifluoromethyl)pyrrolidine-3-carboxamide]",173
15,"CN1CCC(NC(=O)C2CN(c3ccc(C#N)c4ncccc34)CC23CC3)CC1 (single isomer, unassigned) [Example 41A, 5-(8-Cyano-5-quinolyl)-N-(1-methyl-4-piperidyl)-5-azaspiro[2.4]heptane-7-carboxamide]",191
16,"C[C@@H]1CN(c2ccc(C#N)c3ncccc23)C[C@H]1C(=O)NC1CCCNCC1 (single isomer, unassigned) [Example 52A, Trans-N-(azepan-4-yl)-1-(8-cyano-5-quinolyl)-4-methyl-pyrrolidine-3-carboxamide]",225
17,"C[C@@H]1CN(c2ccc(C#N)c3ncccc23)C[C@H]1C(=O)NC1CCCNCC1 (single isomer, unassigned) [Example 52B, Trans-N-(azepan-4-yl)-1-(8-cyano-5-quinolyl)-4-methyl-pyrrolidine-3-carboxamide]",274
18,"N#Cc1ccc(N2CC(C(=O)NC[C@H]3CNCCO3)C3(CC3)C2)c2nccnc12 (single isomer, unassigned) [Example 70A]",34
19,"N#Cc1ccc(N2CC(C(=O)NC[C@H]3CNCCO3)C3(CC3)C2)c2nccnc12 (single isomer, unassigned) [Example 70B]",168
20,"N#Cc1ccc(N2CC(C(=O)NC[C@@H]3CNCCO3)C3(CC3)C2)c2nccnc12 (single isomer, unassigned) [Example 71A]",75
21,"N#Cc1ccc(N2CC(C(=O)NC[C@@H]3CNCCO3)C3(CC3)C2)c2nccnc12 (single isomer, unassigned) [Example 71B]",134
22,"CN1CCC(NC(=O)[C@H]2CN(c3ccc(C#N)c4nccnc34)C[C@@H]2C(F)(F)F)CC1 [Example 1, (3R,4R)-1-(8-cyanoquinoxalin-5-yl)-N-(1-methyl-4-piperidyl)-4-(trifluoromethyl) pyrrolidine-3-carboxamide]",13
23,"CN1CCC(NC(=O)[C@H]2CN(c3ccc(C(F)(F)F)c4nccnc34)C[C@@H]2C(F)(F)F)CC1 [Example 2, (3R,4R)—N-(1-methyl-4-piperidyl)-4-(trifluoromethyl)-1-[8-(trifluoromethyl)quinoxalin-5-yl]pyrrolidine-3-carboxamide]",18
24,"C[C@H]1CN(c2ccc(C#N)c3nccnc23)C[C@@H]1C(=O)NC1CCN(C)CC1 [Example 3, (3R,4R)-1-(8-cyanoquinoxalin-5-yl)-4-methyl-N-(1-methyl-4-piperidyl)pyrrolidine-3-carboxamide]",5
25,"CN1CCC(NC(=O)[C@H]2CN(c3ccc(C#N)c4ncccc34)C[C@@H]2C(F)(F)F)CC1 [Example 4, (3R,4R)-1-(8-cyano-5-quinolyl)-N-(1-methyl-4-piperidyl)-4-(trifluoromethyl)pyrrolidine-3-carboxamide]",25
26,"C[C@H]1CN(c2ccc(C(F)(F)F)c3nccnc23)C[C@@H]1C(=O)NC1CCN(C)CC1 [Example 5, (3R,4R)-4-methyl-N-(1-methyl-4-piperidyl)-1-[8-(trifluoromethyl)quinoxalin-5-yl]pyrrolidine-3-carboxamide]",11
